Source: US12091411B2, “IRAK degraders and uses thereof” (Kymera Therapeutics, Inc., priority 2022, dated 2024)
Where two headings read alike, the source gives them in different places.

Target: T1, IRAK4 (Homo sapiens, UniProt Q9NWZ3)
T1 construct: Degradation of IRAK4 in OCI-LY10 was quantitatively measured using Meso Scale Discovery technology; endogenous in cells; host or cells: OCI-LY10
T1 sequence (Q9NWZ3 1-460): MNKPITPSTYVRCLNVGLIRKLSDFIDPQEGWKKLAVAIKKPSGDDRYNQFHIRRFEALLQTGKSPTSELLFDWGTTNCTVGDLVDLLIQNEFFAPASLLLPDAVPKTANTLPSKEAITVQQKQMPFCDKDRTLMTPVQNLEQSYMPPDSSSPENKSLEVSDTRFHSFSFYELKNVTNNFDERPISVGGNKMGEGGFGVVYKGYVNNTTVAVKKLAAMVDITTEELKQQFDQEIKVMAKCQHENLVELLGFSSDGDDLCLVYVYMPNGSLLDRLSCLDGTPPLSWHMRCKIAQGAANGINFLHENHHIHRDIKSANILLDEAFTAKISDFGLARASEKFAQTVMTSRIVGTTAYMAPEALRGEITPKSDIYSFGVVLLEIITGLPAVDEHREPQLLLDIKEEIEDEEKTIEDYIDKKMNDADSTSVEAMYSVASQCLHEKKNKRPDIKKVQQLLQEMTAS
Test: IRAK4 MSD Degradation in OCI-LY10
Assay type: cell-based
Conditions: OCI-LY10 cells, MSD
Outline: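 OCI-LY10 cells exposed to 8-point 1:3 compound series (top 1 to 10 μM) for 4 to 24 h at 37 °C, 5% CO2. Lysate IRAK4 quantified by MSD sandwich immunoassay. DC50 from three-parameter logistic fit, binned A (<0.01 μM) to D (>0.2 μM or not tested).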

[1] = 4 hrs incubation, read-out: IRAK4 degradation in OCI-LY10 at 4 hrs: DC50
[2] = 24 hrs incubation, read-out: IRAK4 degradation in OCI-LY10 at 24 hrs: DC50

SMILES	DC50 [1]	DC50 [2]
CO[C@H]1CN(c2cccc3c2n(C)c(=O)n3C2CCC(=O)NC2=O)C[C@H]1N(C)C[C@H]1CC[C@H](n2cc3cc(NC(=O)c4cccc(C(F)(F)F)n4)ccc3n2)CC1 (stereo partly drawn) [I-493]	> 200 nM	> 200 nM
Cn1c(=O)n(C2CCC(=O)NC2=O)c2cccc(N3CC(O)(CN4CCN(C[C@H]5CC[C@H](n6cc(NC(=O)c7cnn8ccc(N9C[C@H]%10CC9CO%10)nc78)c(C(F)F)n6)CC5)CC4)C3)c21 (stereo partly drawn) [I-605]	> 200 nM	< 10 nM
Cn1c(=O)n(C2CCC(=O)NC2=O)c2cccc([C@H]3C[C@H](CN4CCN(C[C@H]5CC[C@H](n6cc(NC(=O)c7cnn8cccnc78)c(C(F)F)n6)CC5)CC4)C3)c21 (stereo partly drawn) [I-572]	> 200 nM	> 200 nM
Cn1c(=O)n(C2CCC(=O)NC2=O)c2cccc(C#CCOC3CCN(C[C@H]4C[C@H](n5cc(NC(=O)c6cnn7ccc(N8C[C@H]9C[C@@H]8CO9)nc67)c(C(F)F)n5)C4)CC3)c21 (stereo partly drawn) [I-28]	< 10 nM	> 200 nM
Cn1c(=O)n(C2CCC(=O)NC2=O)c2cccc(C#CCN3CCN(C[C@H]4CC[C@H](n5cc(NC(=O)c6cnn7ccc(N8CCC(C)(C)C8)nc67)c(C(F)F)n5)CC4)CC3)c21 (stereo partly drawn) [I-223]	> 200 nM	10 to 100 nM
CN(C[C@H]1CC[C@H](n2cc(NC(=O)c3cnn4ccc(N5CCC6(CC5)CC6)nc34)c(C(F)F)n2)CC1)C1CCN(c2cccc3c2n(C)c(=O)n3C2CCC(=O)NC2=O)CC1(F)F (stereo partly drawn) [I-521]	> 200 nM	> 200 nM
C[C@H]1CN(C[C@H]2CC[C@H](n3cc(NC(=O)c4cnn5ccc(N6C[C@H]7C[C@@H]6CO7)nc45)c(C(F)F)n3)CC2)CC[C@@H]1OCC#Cc1cccc2c(N3CCC(=O)NC3=O)cncc12 [I-56]	< 10 nM	> 200 nM
Cn1c(=O)n(C2CCC(=O)NC2=O)c2cccc(OC3CCN([C@H]4CC[C@H](n5cc6cc(NC(=O)c7cccc(C(F)(F)F)n7)ncc6n5)CC4)CC3(F)F)c21 (stereo partly drawn) [I-755]	> 200 nM	> 200 nM
Cc1ccc(-c2nn([C@H]3CC[C@H](CN4CCN(CC#Cc5cccc6c5n(C)c(=O)n6C5CCC(=O)NC5=O)CC4)CC3)cc2NC(=O)c2cnn3cccnc23)cc1 (stereo partly drawn) [I-118]	> 200 nM	10 to 100 nM
Cn1c(=O)n(C2CCC(=O)NC2=O)c2cccc(C3CCN(C[C@H]4CC[C@H](n5cc6cc(NC(=O)c7cccc(C(F)(F)F)n7)ccc6n5)CC4)CC3F)c21 (stereo partly drawn) [I-553]	> 200 nM	< 10 nM
Cn1c(=O)n(C2CCC(=O)NC2=O)c2cccc(C#CCN3CCN(C[C@H]4CC[C@H](n5cc(NC(=O)c6cnn7ccc(N8CC(C)(C)C8)nc67)c(C(F)F)n5)CC4)CC3)c21 (stereo partly drawn) [I-225]	> 200 nM	< 10 nM
Cn1c(=O)n(C2CCC(=O)NC2=O)c2cccc([C@H]3C[C@H](CO[C@H]4CCN(C[C@H]5CC[C@H](n6cc(NC(=O)c7cnn8ccc(N9C[C@H]%10C[C@@H]9CO%10)nc78)c(C(F)F)n6)CC5)C[C@@H]4F)C3)c21 (stereo partly drawn) [I-718]	> 200 nM	< 10 nM
O=C1CCN(c2cccc(C#CCN3CCN(C[C@H]4CC[C@@H](n5cc(NC(=O)c6cnn7ccc(N8CC9CC(C8)O9)nc67)c(C(F)F)n5)CC4)CC3)c2)C(=O)N1 [I-436]	> 200 nM	> 200 nM
COc1ncc([C@H]2CC[C@H](CN3CCC(OCC#Cc4cccc5c4n(C)c(=O)n5C4CCC(=O)NC4=O)CC3)CC2)cc1NC(=O)c1cnn2ccc(N3C[C@H]4C[C@@H]3CO4)nc12 (stereo partly drawn) [I-180]	> 200 nM	> 200 nM
Cc1ccc(-c2nn([C@H]3CC[C@H](CN4CCC(OCC#Cc5cccc6c5n(C)c(=O)n6C5CCC(=O)NC5=O)CC4)CC3)cc2NC(=O)c2cnn3cccnc23)nc1 (stereo partly drawn) [I-170]	> 200 nM	10 to 100 nM
Cn1c(=O)n(C2CCC(=O)NC2=O)c2cccc(N3CCC4(CCN(C[C@H]5CC[C@@H](n6cc(NC(=O)c7cnn8ccc(N9CC%10C[C@@H]9CO%10)nc78)c(C(F)F)n6)CC5)CC4)CC3)c21 (stereo partly drawn) [I-188]	< 10 nM	> 200 nM
Cn1c(=O)n(C2CCC(=O)NC2=O)c2cccc(C[C@@H]3CN(C[C@H]4CC[C@H](n5cc(NC(=O)c6cnn7ccc(N8C[C@H]9C[C@@H]8CO9)nc67)c(C(F)F)n5)CC4)CCO3)c21 (stereo partly drawn) [I-393]	> 200 nM	> 200 nM
COc1cc2nn([C@H]3CC[C@H](CN4CC(c5cncc6c5n(C)c(=O)n6C5CCC(=O)NC5=O)C4)CC3)cc2cc1NC(=O)c1cccc(C(C)(C)F)n1 (stereo partly drawn) [I-135]	> 200 nM	> 200 nM
COc1cc2nn([C@H]3CC[C@H](CN(C)C4CCN(c5cccc6c5n(C)c(=O)n6C5CCC(=O)NC5=O)CC4(F)F)CC3)cc2cc1NC(=O)c1cccc(C(F)(F)F)n1 (stereo partly drawn) [I-710]	> 200 nM	10 to 100 nM
CO[C@H]1CN(c2cccc3c2n(C)c(=O)n3C2CCC(=O)NC2=O)CC[C@H]1N(C)C[C@H]1CC[C@H](n2cc3cc(NC(=O)c4cccc(C(F)(F)F)n4)ccc3n2)CC1 (stereo partly drawn) [I-498]	> 200 nM	> 200 nM
Cn1c(=O)n(C2CCC(=O)NC2=O)c2cccc([C@H]3CCN(C[C@H]4CC[C@H](n5cc6cc(NC(=O)c7cccc(C(F)(F)F)n7)ncc6n5)CC4)C[C@@H]3F)c21 (stereo partly drawn) [I-657]	> 200 nM	> 200 nM
Cn1c(=O)n(C2CCC(=O)NC2=O)c2cccc(C#CCN3CCN(C[C@H]4CC[C@H](n5cc(NC(=O)c6cnn7ccc(N8C[C@H]9C[C@@H]8CO9)nc67)c(Cl)n5)CC4)CC3)c21 (relative stereo) [I-117]	> 200 nM	10 to 100 nM
Cn1c(=O)n(C2CCC(=O)NC2=O)c2cccc(C#CCN3CCC(C[C@H]4CC[C@H](n5cc6cc(NC(=O)c7cccc(C(F)(F)F)n7)ccc6n5)CC4)CC3)c21 (stereo partly drawn) [I-758]	> 200 nM	> 200 nM
Cn1c(=O)n(C2CCC(=O)NC2=O)c2cccc(C#CCOC3CCN(C[C@H]4CC[C@H](n5cc(NC(=O)c6cnn7ccc(N8CCC9(CCOC9)C8)nc67)c(C(F)F)n5)CC4)CC3)c21 (stereo partly drawn) [I-331]	10 to 100 nM	> 200 nM
Cc1cccc(C(=O)Nc2cc3cn([C@H]4CC[C@H](CN5CC[C@@H](c6cccc7c6n(C)c(=O)n7C6CCC(=O)NC6=O)[C@@H](F)C5)CC4)nc3cc2C(C)(C)O)n1 (stereo partly drawn) [I-644]	> 200 nM	> 200 nM
Cn1c(=O)n(C2CCC(=O)NC2=O)c2cccc(C#CCN3C4COCC3CN(C[C@H]3CC[C@H](n5cc(NC(=O)c6cnn7ccc(N8C[C@H]9C[C@@H]8CO9)nc67)c(C(F)F)n5)CC3)C4)c21 (stereo partly drawn) [I-349]	10 to 100 nM	> 200 nM
C[C@@H]1CN(C[C@H]2CC[C@H](n3cc(NC(=O)c4cnn5ccc(N6C[C@H]7C[C@@H]6CO7)nc45)c(C(F)F)n3)CC2)CCN1CC#Cc1cccc2c1n(C)c(=O)n2C1CCC(=O)NC1=O (stereo partly drawn) [I-42]	10 to 100 nM	> 200 nM
Cn1c(=O)n(C2CCC(=O)NC2=O)c2cccc([C@@H]3CCN(C[C@H]4CC[C@H](n5cc6cc(NC(=O)c7cccc(C(F)F)n7)ccc6n5)CC4)C[C@@H]3F)c21 (stereo partly drawn) [I-628]	> 200 nM	> 200 nM
CN(C)c1cnc2c(C(=O)Nc3cn([C@H]4CC[C@H](CN5CCN(CC#Cc6cccc7c6n(C)c(=O)n7C6CCC(=O)NC6=O)CC5)CC4)nc3C(F)F)cnn2c1 (stereo partly drawn) [I-234]	> 200 nM	100 to 200 nM
Cn1c(=O)n(C2CCC(=O)NC2=O)c2cccc([C@H]3CC[C@H](CN4CCN(C[C@H]5CC[C@H](n6cc(NC(=O)c7cnn8ccc(N9C[C@H]%10C[C@@H]9CO%10)nc78)c(C(F)F)n6)CC5)CC4)CC3)c21 (stereo partly drawn) [I-362]	< 10 nM	> 200 nM
